Source: patent US8680129B2, “Compounds, composition, methods, targets for cancer therapy” (priority 2008, dated 2014)
Values joined by “and” are separate entries in the source; they are usually repeats but may differ in a detail not shown here. Identical values can stand only once. Like-named read-outs stand apart in the source and are kept apart here.

Key:
[1] = test system: Cal27, UM-SCC6 and HT1080 cells; experiment: Differential cellular responses to mPMS, cell viability; type: cell-based, human; conditions: Cal27, UM-SCC6 and HT1080 cells 'respectively', only two values printed; read-out: 1050 of mPMS
Procedure: (§1) Non cancer human keratinocyte (HEKa), SK-Mel-5 human malonoma cell line (SK5), human head and neck cancer cell Cal27 line (Cal27) and UM-SCC6 line (SCC6) cells and human soft tissue sarcoma cell line HT1080 (HT1080) were treated with 30, 40 or 50 μM mPMS for 4 hours and then cultured in normal growth medium for another 24 hours. Cell viabilities were measured with CCK8 kit.

[2] = test system: UM-SCC6 cells; experiment: mPMS dose-response with WST-1c and apigenin, cell viability; type: cell-based, human; conditions: for IC50: read-out: mPMS1050
Procedure: (§2) Method: A & B: HT1080 (FIG. 16A) and UM-SCC6 (FIG. 16B) cells were treated with variable concentrations of mPMS as indicated in combination with 1 mM WST-1c and 10, 30 or 100 μM apigenin for 4 hours and, then, changed to normal growth medium for another 24 hours. Cell viabilities were measured by CCK8 Kit. 1 mM WST-1 only, 0.12 mM mPMS only and 10% WST-1r were used as parallel control. AP 0: Untreated Control, AP 10: 10 μM Apigenin, AP 30: 30 μM Apigenin, AP 100: 100 μM Apigenin.

[3] = test system: HT1080 cells; experiment: as above; type: cell-based, human; conditions: mPMS variable with 1 mM WST-1c and 10, 30 or 100 μM apigenin
Procedure: as §2

[4] = test system: non cancer human keratinocyte (HEKa); experiment: Differential cellular responses to mPMS, cell viability; type: cell-based
Procedure: as §1

[5] = test system: HEKa, SK-Mel-5, Cal27, UM-SCC6 and HT1080 cells; experiment: Differential cellular responses to mPMS, cell viability, all lines; type: cell-based, human; conditions: 30, 40 or 50 μM mPMS 4 hours, then 24 hours
Procedure: as §1

[6] = test system: Cal27 cells; experiment: WST-3 with or without mPMS plus apigenin, cell viability; type: cell-based, human; conditions: 30 μM mPMS added to 0.1 mM WST-3 and 30 μM apigenin
Procedure: (§3) Method: UM-SCC6, HT1080, Cal127, SK-Mel-5, and HEKa cells were treated with 0.1 mM WST-3 plus 30 μM mPMS, or WST-3 only, or untreated control in combination with 10 or 30 μM apigenin for 4 hours and, then, changed to normal growth medium and remained culture in this medium for another 24 hours. After the 24 hours culture, cell viabilities were measured with CCK8 Kit. Data were normalized to % of untreated control cells.

[7] = test system: UM-SCC6 cells; experiment: as above; type: cell-based, human; conditions: 30 μM mPMS added to 0.1 mM WST-3 and 30 μM apigenin
Procedure: as §3

[8] = test system: HT1080 cells; experiment: siRNA or Puc19 transfection, IKK inhibitor III and WST-1r triple combination, CCK8; type: cell-based, human; conditions: IKK inhibitor 24 hours, then WST-1r 4 hour
Procedure: Method: HT1080 cells were transfected with siRNA#3, or the siRNA targeting MAGI3, and TMEM182 that were derived from Puc19 DNA sequence and the siRNAs that targeting the corresponding genes that are the targets of the Puc19 derived siRNAs for 24 hours, then, treated with IKK inhibitor III for 24 hours followed by adding WST-1r for another 4 hour. After the 4 hours WST-1r treatment, cells in culture were changed to normal growth medium for 24 hours. Cell viability were monitored by CCK8 Kit every 24 hours. Data were normalized to % of untreated control cells. AllStar siRNA was used as negative siRNA trasnfection control. Puc19 DNA vector transfection was used as positive control.
Data label: Untreated control: 0 Ctrl, WST-1r only: 10 Ctrl, pUC19 transfected cells: 0 p9, pUC19 transfected and WST-1r treated: 10 p9, AllStar negative contrl siRNA transfected: 0 AllStar, AllStar transfected and WST-1r treated: 10 AllStar, siRNA#3 transfected: 0 siRNA#3, siRNA#3 transfcted and WST-1r treated: 10 siRNA#3, siRNAMAGI3 transfected: 0 MAGI3, siRNA MAGI3 transfcted and WST-1r treated: 10 MAGI3, siRNATMEM182 transfected: 0 TMEM182, siRNATMEM182 transfcted and WST-1r treated: 10 TMEM182,

[9] = test system: HT1080 cells; experiment: DNA transfection, IKK inhibitor III and WST-1 combination, cell viability by CCK8; type: cell-based, human
Procedure: Methods: HT1080 cells were cultured in 96 well plates and transfected with one of the pUC19, pcDNA3, IKK1-KA, IKK1-KA+PUC19, or pcDNA3+pUC19 DNA vectors for 24 hours followed with treatment of IKK Inhibitor IIII at 3-30 μM for another 24 hours and, then, treated with 10% WST-1 for 4 hours and cultured overnight before detection. The same treatments of cells were measured at 24, 48 and 96 hours after WST-1 treatment. Cell viability was measured by Cell Count Kit 8 (CCK8).

[10] = test system: T294 human melanoma cells; experiment: WST-1r then IKK inhibitor III, cell viability by CCK8; type: cell-based; conditions: WST-1r 1% and 3% 4 hours, then BMS345541 3 and 10 μM 24 hours; combination 3% WST-1r and 10 μM BMS345541
Procedure: (§4) Method: SK-Mel-5 and T294 human melanoma cells were treated with WST-1r at 1% and 3% final concentration respectively as indicated for 4 hours, then, removed WST-1r by changing to normal growth medium and added IKK inhibitor III for another 24 hours. After 24 hours treatment with 3 μM and 10 μM IKK inhibitor III respectively as indicated, cells were changed to grow in normal growth medium for 48 hours before measuring cell viability by CCK8 Kit.

[11] = test system: SK-Mel-5 human melanoma cells; experiment: as above; type: cell-based; conditions: WST-1r 1% and 3% 4 hours, then BMS345541 3 and 10 μM 24 hours; combination 3% WST-1r and 10 μM BMS345541
Procedure: as §4

[12] = test system: ROS generation in UM-SCC6 cells; experiment: Dose response of ROS generation (CM-H2-DCFDA fluorescence); type: cell-based, human
Procedure: Method: UM-SCC6 cells were labeled with 10 μM CM-H2-DCFDA for 15 minutes and then treated with WST-1r or CCK8 at the indicated amounts in combination with variable doses of apigenin (A) or IKK Inhibitor III (B) for 4 hours. Fluorescence at Ex485/Em535 were measured for detecting ROS generation that labeled by the CM-H2-DCFDA.

[13] = test system: ROS generation in HT1080 cells; experiment: ROS labeling with CM-H2-DCFDA (imaging); type: cell-based, human; conditions: cells transfected with pUC19, no exposure to WST-1
Procedure: Methods: HT1080 cells were cultured in cover slices and transfected with pUC19 and treated with IKK inhibitor III in sequential. Following these treatment, the cells, thus, treated, were either labeled with CM-H2-DCFDA, a fluorescence dye that can labeling ROS in cells, and, then, treated with WST-1 for 30 minutes (FIG. 23A) or treated with WST-1 for 2 hours and then labeled with CM-H2-DCFDA (FIG. 23-B). The results were recorded by a digital camera with Spotlight software. Manuel exposure levels were used to maintain the same exposure level for comparison.

Row | Molecule | IC50 [1] | IC50 ([2]; combination of apigenin 100 μM and mPMS+WST-1) | cell death ([2]; mPMS variable with 1 mM WST-1c and 10, 30 or 100 μM apigenin) | IC50 ([2]; untreated control cells (no apigenin)) | cell death [3] | sensitivity to mPMS treatment ([4]; compared with the cancer cell lines) | IC50 ([4]; mPMS 4 hours, then 24 hours) | cell death and sensitivity to mPMS [5] | effect of adding mPMS on cell death [6] | effect of adding mPMS on cell death [7] | cell death [8] | cell death by morphology examination ([9]; 30 μM, 24 hours after the WST-1 treatment) | induction of cell death ([9]; cells transfected with any of the DNA vectors, IKK inhibitor III 3-30 μM, 24, 48 and 96 hour after WST-1 treatment, vs non transfected control) | cell death [10] | cell death [11] | ROS levels ([12]; 5 μM IKK Inhibitor, alone and with WST-1r) | ROS levels ([12]; 10 μM IKK Inhibitor III, alone and with WST-1r) | ROS levels ([12]; IKK Inhibitor III combined with CCK8) | labeled ROS [13]
1 | 1-methoxy-5-methyl-phenazinium methyl sulfate [mPMS] | 20 µM and 30 µM | 30 µM | dose dependent cell death | 80 µM | dose dependent cell death | least sensitivity to mPMS treatment | 50 µM | mPMS dose dependent cell death and differential sensitivities to mPMS treatment | further synergize the cell death | further synergize the cell death | – | – | – | – | – | – | – | – | –
2 | Cc1ccc2nc(NCCN)c3ncc(C)n3c2c1 [IKK inhibitor III] | – | – | – | – | – | – | – | – | – | – | dose dependent cell death | majority of the 30 μM IIKK inhibitor III treated cells died | significant IKK inhibitor III dose dependent induction of cell death | dose dependent increase of cell deaths | dose dependent increase of cell deaths | increased ROS levels | decreased it | no combined effect with CCK8 on ROS levels | IKK inhibitor III dose dependent labeled ROS
